Reference: patent US20060241122A1, “Combination therapy for the treatment of neoplasms” (priority 2003, published 2006)

Legend:
[1] = test system: non-small cell lung carcinoma A549 cells; test: Anti-proliferation assay (Alamar Blue metabolism), A549 cells; assay type: cell-based; conditions: 72 h
Description: Inhibition of proliferation was measured by anti-proliferation assay as described below after incubation with the test compound(s) for 72 hours.
(§1) The combination matrices were used immediately and discarded.
Cells were diluted in culture media such that 3,000 SKMEL-28 cells, or 1,500 cells for all the other cell lines, were delivered in 35 μl of media into each assay well. Assay plates were incubated for 16-24 hours 37° C.±0.5° C. with 5% CO2. […] Assay plates were further incubated for 72 hours at 37° C.±0.5° C. with 5% CO2. […] Alamar Blue metabolism was quantified by the amount of fluorescence intensity 3.5-5.0 hours after addition.
The percent inhibition (% I) for each well was calculated using the following formula: % I=[(avg. untreated wells−treated well)/(avg. untreated wells)]×100 The average untreated well value (avg. untreated wells) is the arithmetic mean of 40 wells from the same assay plate treated with vehicle alone.

[2] = test system: human pancreatic cancer PANC1 cells; test: Anti-proliferation assay (Alamar Blue metabolism), PANC1 cells; assay type: cell-based; conditions: 72 h
Text: as §1

[3] = test system: human melanoma SKMEL-28 cells; test: Anti-proliferation assay (Alamar Blue metabolism), SKMEL-28 cells; assay type: cell-based; conditions: 72 h
Text: as §1

[4] = test system: human prostate cancer DU145 cells; test: Anti-proliferation assay (Alamar Blue metabolism), DU145 cells; assay type: cell-based; conditions: 72 h
Text: as §1

[5] = test system: human colorectal carcinoma HCT116 cells; test: Anti-proliferation assay (Alamar Blue metabolism), HCT116 cells; conditions: for Percent inhibition of Alamar Blue Metabolism in HCT116 cells: 72 h;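 for all read-outs here: cells in 384-well plates exposed to compound combination matrices for 72 h, Alamar Blue fluorescence read (excitation 530 nm), inhibition calculated against mean of vehicle-only wells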
Description: Stock solutions (1000×) of each compound were prepared in DMSO and stored at −20° C. Master stock plates of 2-fold or 4-fold serial dilutions of individual compounds were prepared in 384-well plates. Combination matrices of test compounds were generated from these master stock plates by dilution into growth media described above. […] The combination matrices were used immediately and discarded.
The anti-proliferation assays were performed in 384-well plates. […] Cells were diluted in culture media such that 3,000 SKMEL-28 cells, or 1,500 cells for all the other cell lines, were delivered in 35 μl of media into each assay well. Assay plates were incubated for 16-24 hours 37° C.±0.5° C. with 5% CO2. After incubation, 4.5 μl of 10× stock solutions from the combination matrices were added to 40 μl of culture media. Assay plates were further incubated for 72 hours at 37° C.±0.5° C. with 5% CO2. […] Alamar Blue metabolism was quantified by the amount of fluorescence intensity 3.5-5.0 hours after addition. Quantification, using an LJL Analyst AD reader (LJL Biosystems), was taken in the middle of the well with high attenuation, a 100 msec read time, an excitation filter at 530 nm, and an emission filter at 575 nm. For some experiments, quantification was performed using a Wallac Victor^2 reader. Measurements were taken at the top of the well with stabilized energy lamp control; a 100 msec read time, an excitation filter at 530 nm, and an emission filter at 590 nm.

CCC(C)n1ncn(-c2ccc(N3CCN(c4ccc(OCC5COC(Cn6cncn6)(c6ccc(Cl)cc6Cl)O5)cc4)CC3)cc2)c1=O (centres unmarked) [Itraconazole, itraconazole]
Percent inhibition of Alamar Blue Metabolism in A549 cells ([1]; itraconazole 0.87 μM + simvastatin at row conc. c1 (0-48 μM)): 13.5% | Percent inhibition of Alamar Blue Metabolism in A549 cells ([1]; itraconazole 7 μM + simvastatin at row conc. c1 (0-48 μM)): 4.0% | Percent inhibition of Alamar Blue Metabolism in A549 cells ([1]; itraconazole 14 μM + simvastatin at row conc. c1 (0-48 μM)): 13.3% | Percent inhibition of Alamar Blue Metabolism in A549 cells ([1]; itraconazole 28 μM + simvastatin at row conc. c1 (0-48 μM)): 13.9% | Percent inhibition of Alamar Blue Metabolism in PANC1 cells ([2]; Table 4: itraconazole 0.87 μM + simvastatin at row conc. c1 (0-48 μM)): 2.6% | Percent inhibition of Alamar Blue Metabolism in PANC1 cells ([2]; Table 4: itraconazole 7 μM + simvastatin at row conc. c1 (0-48 μM)): −2.6% | Percent inhibition of Alamar Blue Metabolism in PANC1 cells ([2]; Table 4: itraconazole 14 μM + simvastatin at row conc. c1 (0-48 μM)): 2.1% | Percent inhibition of Alamar Blue Metabolism in PANC1 cells ([2]; Table 4: itraconazole 28 μM + simvastatin at row conc. c1 (0-48 μM)): 1.7% | Percent inhibition of Alamar Blue Metabolism in PANC1 cells ([2]; Table 8: itraconazole 0.87 μM + atorvastatin at row conc. c1 (0-36 μM)): 9.8% | Percent inhibition of Alamar Blue Metabolism in PANC1 cells ([2]; Table 8: itraconazole 7 μM + atorvastatin at row conc. c1 (0-36 μM)): −0.6% | Percent inhibition of Alamar Blue Metabolism in PANC1 cells ([2]; Table 8: itraconazole 14 μM + atorvastatin at row conc. c1 (0-36 μM)): −4.4% | Percent inhibition of Alamar Blue Metabolism in PANC1 cells ([2]; Table 8: itraconazole 28 μM + atorvastatin at row conc. c1 (0-36 μM)): −2.5% | Percent inhibition of Alamar Blue Metabolism in PANC1 cells ([2]; Table 12: itraconazole 0.87 μM + fluvastatin at row conc. c1 (0-49 μM)): 4.9% | Percent inhibition of Alamar Blue Metabolism in PANC1 cells ([2]; Table 12: itraconazole 7 μM + fluvastatin at row conc. c1 (0-49 μM)): −1.9% | Percent inhibition of Alamar Blue Metabolism in PANC1 cells ([2]; Table 12: itraconazole 14 μM + fluvastatin at row conc. c1 (0-49 μM)): −8.1% | Percent inhibition of Alamar Blue Metabolism in PANC1 cells ([2]; Table 12: itraconazole 28 μM + fluvastatin at row conc. c1 (0-49 μM)): −3.7% | Percent inhibition of Alamar Blue Metabolism in SKMEL-28 cells ([3]; Table 5: itraconazole 0.87 μM + simvastatin at row conc. c1 (0-48 μM)): 1.0% | Percent inhibition of Alamar Blue Metabolism in SKMEL-28 cells ([3]; Table 5: itraconazole 7 μM + simvastatin at row conc. c1 (0-48 μM)): 13.5% | Percent inhibition of Alamar Blue Metabolism in SKMEL-28 cells ([3]; Table 5: itraconazole 14 μM + simvastatin at row conc. c1 (0-48 μM)): 19.3% | Percent inhibition of Alamar Blue Metabolism in SKMEL-28 cells ([3]; Table 5: itraconazole 28 μM + simvastatin (0-48 μM)): 16.7% | Percent inhibition of Alamar Blue Metabolism in SKMEL-28 cells ([3]; Table 9: itraconazole 0.87 μM + atorvastatin at row conc. c1 (0-36 μM)): 1.4% | Percent inhibition of Alamar Blue Metabolism in SKMEL-28 cells ([3]; Table 9: itraconazole 7 μM + atorvastatin at row conc. c1 (0-36 μM)): 11.2% | Percent inhibition of Alamar Blue Metabolism in SKMEL-28 cells ([3]; Table 9: itraconazole 14 μM + atorvastatin at row conc. c1 (0-36 μM)): 13.0% | Percent inhibition of Alamar Blue Metabolism in SKMEL-28 cells ([3]; Table 9: itraconazole 28 μM + atorvastatin at row conc. c1 (0-36 μM)): 13.5% | Percent inhibition of Alamar Blue Metabolism in SKMEL-28 cells ([3]; Table 13: itraconazole 0.87 μM + fluvastatin at row conc. c1 (0-49 μM)): 2.8% | Percent inhibition of Alamar Blue Metabolism in SKMEL-28 cells ([3]; Table 13: itraconazole 7 μM + fluvastatin at row conc. c1 (0-49 μM)): 11.3% | Percent inhibition of Alamar Blue Metabolism in SKMEL-28 cells ([3]; Table 13: itraconazole 14 μM + fluvastatin at row conc. c1 (0-49 μM)): 13.3% | Percent inhibition of Alamar Blue Metabolism in SKMEL-28 cells ([3]; Table 13: itraconazole 28 μM + fluvastatin at row conc. c1 (0-49 μM)): 16.3% | Percent inhibition of Alamar Blue Metabolism in DU145 cells ([4]; Table 6: itraconazole 0.87 μM + atorvastatin at row conc. c1 (0-36 μM)): 0.8% | Percent inhibition of Alamar Blue Metabolism in DU145 cells ([4]; Table 6: itraconazole 7 μM + atorvastatin at row conc. c1 (0-36 μM)): −3.5% | Percent inhibition of Alamar Blue Metabolism in DU145 cells ([4]; Table 6: itraconazole 14 μM + atorvastatin at row conc. c1 (0-36 μM)): −4.2% | Percent inhibition of Alamar Blue Metabolism in DU145 cells ([4]; Table 6: itraconazole 28 μM + atorvastatin at row conc. c1 (0-36 μM)): −8.8% | Percent inhibition of Alamar Blue Metabolism in DU145 cells ([4]; Table 10: itraconazole 0.87 μM + fluvastatin at row conc. c1 (0-49 μM)): 2.1% | Percent inhibition of Alamar Blue Metabolism in DU145 cells ([4]; Table 10: itraconazole 7 μM + fluvastatin at row conc. c1 (0-49 μM)): −7.4% | Percent inhibition of Alamar Blue Metabolism in DU145 cells ([4]; Table 10: itraconazole 14 μM + fluvastatin at row conc. c1 (0-49 μM)): −5.6% | Percent inhibition of Alamar Blue Metabolism in DU145 cells ([4]; Table 10: itraconazole 28 μM + fluvastatin at row conc. c1 (0-49 μM)): −9.0% | inhibition at 7 µM ([5]; Homo sapiens, HCT-116, read-out: Percent inhibition of Alamar Blue Metabolism, cerivastatin 0 μM, itraconazole 7 μM): 24.3% | inhibition at 28 µM ([5]; Homo sapiens, HCT-116, read-out: Percent inhibition of Alamar Blue Metabolism, cerivastatin 0 μM, itraconazole 28 μM): 27.7% | Percent inhibition of Alamar Blue Metabolism in HCT116 cells ([5]; Table 2: itraconazole 0.87 μM + simvastatin at row conc. c1 (0-48 μM)): 3.9% | Percent inhibition of Alamar Blue Metabolism in HCT116 cells ([5]; Table 2: itraconazole 7 μM + simvastatin at row conc. c1 (0-48 μM)): 18.9% | Percent inhibition of Alamar Blue Metabolism in HCT116 cells ([5]; Table 2: itraconazole 14 μM + simvastatin at row conc. c1 (0-48 μM)): 19.2% | Percent inhibition of Alamar Blue Metabolism in HCT116 cells ([5]; Table 2: itraconazole 28 μM + simvastatin at row conc. c1 (0-48 μM)): 18.6% | Percent inhibition of Alamar Blue Metabolism in HCT116 cells ([5]; Table 3: itraconazole 0.87 μM + simvastatin sodium at row conc. c1 (0-22 μM)): −10.7% | Percent inhibition of Alamar Blue Metabolism in HCT116 cells ([5]; Table 3: itraconazole 7 μM + simvastatin sodium at row conc. c1 (0-22 μM)): 12.2% | Percent inhibition of Alamar Blue Metabolism in HCT116 cells ([5]; Table 3: itraconazole 14 μM + simvastatin sodium at row conc. c1 (0-22 μM)): 10.6% | Percent inhibition of Alamar Blue Metabolism in HCT116 cells ([5]; Table 3: itraconazole 28 μM + simvastatin sodium at row conc. c1 (0-22 μM)): 17.2% | Percent inhibition of Alamar Blue Metabolism in HCT116 cells ([5]; Table 7: itraconazole 0.87 μM + atorvastatin at row conc. c1 (0-36 μM)): 1.7% | Percent inhibition of Alamar Blue Metabolism in HCT116 cells ([5]; Table 7: itraconazole 7 μM + atorvastatin at row conc. c1 (0-36 μM)): 17.4% | Percent inhibition of Alamar Blue Metabolism in HCT116 cells ([5]; Table 7: itraconazole 14 μM + atorvastatin at row conc. c1 (0-36 μM)): 18.1% | Percent inhibition of Alamar Blue Metabolism in HCT116 cells ([5]; Table 7: itraconazole 28 μM + atorvastatin at row conc. c1 (0-36 μM)): 18.6% | Percent inhibition of Alamar Blue Metabolism in HCT116 cells ([5]; Table 11: itraconazole 0.87 μM + fluvastatin at row conc. c1 (0-49 μM)): 2.2% | Percent inhibition of Alamar Blue Metabolism in HCT116 cells ([5]; Table 11: itraconazole 7 μM + fluvastatin at row conc. c1 (0-49 μM)): 18.9% | Percent inhibition of Alamar Blue Metabolism in HCT116 cells ([5]; Table 11: itraconazole 14 μM + fluvastatin at row conc. c1 (0-49 μM)): 20.2% | Percent inhibition of Alamar Blue Metabolism in HCT116 cells ([5]; Table 11: itraconazole 28 μM + fluvastatin at row conc. c1 (0-49 μM)): 20.4% | Percent inhibition of Alamar Blue Metabolism in HCT116 cells ([5]; Table 14: itraconazole 0.87 μM + lovastatin at row conc. c1 (0-48 μM)): 5.1% | Percent inhibition of Alamar Blue Metabolism in HCT116 cells ([5]; Table 14: itraconazole 7 μM + lovastatin at row conc. c1 (0-48 μM)): 17.8% | Percent inhibition of Alamar Blue Metabolism in HCT116 cells ([5]; Table 14: itraconazole 14 μM + lovastatin at row conc. c1 (0-48 μM)): 19.5% | Percent inhibition of Alamar Blue Metabolism in HCT116 cells ([5]; Table 14: itraconazole 28 μM + lovastatin at row conc. c1 (0-48 μM)): 20.7% | Percent inhibition of Alamar Blue Metabolism in HCT116 cells ([5]; Table 15: itraconazole 0.87 μM + lovastatin sodium at row conc. c1 (0-22 μM)): −10.9% | Percent inhibition of Alamar Blue Metabolism in HCT116 cells ([5]; Table 15: itraconazole 7 μM + lovastatin sodium at row conc. c1 (0-22 μM)): 18.0% | Percent inhibition of Alamar Blue Metabolism in HCT116 cells ([5]; Table 15: itraconazole 14 μM + lovastatin sodium at row conc. c1 (0-22 μM)): 15.1% | Percent inhibition of Alamar Blue Metabolism in HCT116 cells ([5]; Table 15: itraconazole 28 μM + lovastatin sodium at row conc. c1 (0-22 μM)): 9.1%
